Source: patent US20260258038A1 (priority 2023, published 2026)

How the values were obtained:
Pythium ultimum = Pythium ultimum / liquid culture (seedling damping off); assay type: cell-based; details: Globisporangium ultimum, liquid culture in PDB, 24° C., 2-3 days after application, read-out: control of Pythium ultimum (inhibition of growth, photometric)
Protocol: Pythium ultimum/Liquid Culture (Seedling Damping Off)
Mycelia fragments and oospores of a newly grown liquid culture of the fungus are directly mixed into nutrient broth (PDB potato dextrose broth). After placing a (DMSO) solution of test compound into a microtiter plate (96-well format), the nutrient broth containing the fungal mycelia/spore mixture is added. The test plates are incubated at 24° C. and the inhibition of growth is determined photometrically 2-3 days after application.

Plasmopara viticola = experiment: whole plant or invertebrate; assay type: in vivo; details: foliar, read-out: control of Plasmopara viticola (percent disease control compared to untreated)
Phytophthora infestans = experiment: whole plant or invertebrate; assay type: in vivo; details: in Solanum lycopersicum, foliar, read-out: control of Phytophthora infestans (percent disease control compared to untreated)

COC(=O)Nc1ccc(-c2cnc3c(Br)cc(N(C)C(=O)c4ccc(F)c(OC)c4)cn23)cn1 [Compound 60, methyl N-[5-[8-bromo-6-[(4-fluoro-3-methoxy-benzoyl)-methyl-amino]imidazo[1,2-a]pyridin-3-yl]-2-pyridyl]carbamate]
≥ 80%: inhibition at 20 ppm (Pythium ultimum) | pest or weed control at 200 ppm (Plasmopara viticola) | pest or weed control at 200 ppm (Phytophthora infestans)

COC(=O)Nc1ccc(-c2cnc3c(C4CC4)cc(N(C)C(=O)c4ccc(F)c(OC)c4)cn23)cn1 [Compound 56, methyl N-[5-[8-cyclopropyl-6-[(4-fluoro-3-methoxy-benzoyl)-methyl-amino]imidazo[1,2-a]pyridin-3-yl]-2-pyridyl]carbamate]
≥ 80%: inhibition at 20 ppm (Pythium ultimum) | pest or weed control at 200 ppm (Plasmopara viticola) | pest or weed control at 200 ppm (Phytophthora infestans)

COC(=O)Nc1ccc(-c2cnc3c(C)cc(N(C)C(=O)c4ccc(C#N)c(OC)c4)cn23)cn1 [Compound 5, methyl N-[5-[6-[(4-cyano-3-methoxy-benzoyl)-methyl-amino]-8-methyl-imidazo[1,2-a]pyridin-3-yl]-2-pyridyl]carbamate]
≥ 80%: inhibition at 20 ppm (Pythium ultimum) | pest or weed control at 200 ppm (Plasmopara viticola) | pest or weed control at 200 ppm (Phytophthora infestans)

COC(=O)Nc1ccc(-c2cnc3c(C)cc(N(C)C(=O)c4cccc(OC)c4)cn23)cn1 [Compound 53, methyl N-[5-[6-[(3-methoxybenzoyl)-methyl-amino]-8-methyl-imidazo[1,2-a]pyridin-3-yl]-2-pyridyl]carbamate]
≥ 80%: inhibition at 20 ppm (Pythium ultimum) | pest or weed control at 200 ppm (Plasmopara viticola) | pest or weed control at 200 ppm (Phytophthora infestans)

C=CCCc1cc(N(C)C(=O)c2ccc(F)c(OC)c2)cn2c(-c3ccc(NC(=O)OC)nc3)cnc12 [Compound 58, methyl N-[5-[8-but-3-enyl-6-[(4-fluoro-3-methoxy-benzoyl)-methyl-amino]imidazo[1,2-a]pyridin-3-yl]-2-pyridyl]carbamate]
≥ 80%: inhibition at 20 ppm (Pythium ultimum) | pest or weed control at 200 ppm (Plasmopara viticola) | pest or weed control at 200 ppm (Phytophthora infestans)

CCOc1cc(C(=O)N(C)c2cc(C)c3ncc(-c4ccc(NC(=O)OC)nc4)n3c2)ccc1C#N [Compound 10, methyl N-[5-[6-[(4-cyano-3-ethoxy-benzoyl)-methyl-amino]-8-methyl-imidazo[1,2-a]pyridin-3-yl]-2-pyridyl]carbamate]
≥ 80%: inhibition at 20 ppm (Pythium ultimum) | pest or weed control at 200 ppm (Plasmopara viticola) | pest or weed control at 200 ppm (Phytophthora infestans)

CCc1cc(N(C)C(=O)c2ccc(F)c(OC)c2)cn2c(-c3ccc(NC(=O)OC)nc3)cnc12 [Compound 57, methyl N-[5-[8-ethyl-6-[(4-fluoro-3-methoxy-benzoyl)-methyl-amino]imidazo[1,2-a]pyridin-3-yl]-2-pyridyl]carbamate]
≥ 80%: inhibition at 20 ppm (Pythium ultimum) | pest or weed control at 200 ppm (Plasmopara viticola) | pest or weed control at 200 ppm (Phytophthora infestans)

COC(=O)Nc1ccc(-c2cnc3c(C)cc(N(C)C(=O)c4ccc(F)c(OC)c4)cn23)cn1 [Compound 13, methyl N-[5-[6-[(4-fluoro-3-methoxy-benzoyl)-methyl-amino]-8-methyl-imidazo[1,2-a]pyridin-3-yl]-2-pyridyl]carbamate]
≥ 80%: inhibition at 20 ppm (Pythium ultimum) | pest or weed control at 200 ppm (Plasmopara viticola) | pest or weed control at 200 ppm (Phytophthora infestans)

COC(=O)Nc1ccc(-c2cnc3ccc(N(C)C(=O)c4ccc(F)c(OC)c4)cn23)cn1 [Compound 26, methyl N-[5-[6-[(4-fluoro-3-methoxy-benzoyl)-methyl-amino]imidazo[1,2-a]pyridin-3-yl]-2-pyridyl]carbamate]
≥ 80%: inhibition at 20 ppm (Pythium ultimum) | pest or weed control at 200 ppm (Plasmopara viticola) | pest or weed control at 200 ppm (Phytophthora infestans)

COC(=O)Nc1ccc(-c2cnc3c(C)cc(N(C)C(=O)c4ccc(F)c(F)c4)cn23)cn1 [Compound 12, methyl N-[5-[6-[(3,4-difluorobenzoyl)-methyl-amino]-8-methyl-imidazo[1,2-a]pyridin-3-yl]-2-pyridyl]carbamate]
≥ 80%: inhibition at 20 ppm (Pythium ultimum) | pest or weed control at 200 ppm (Plasmopara viticola) | pest or weed control at 200 ppm (Phytophthora infestans)

COC(=O)Nc1ccc(-c2cnc3c(C)cc(N(C)C(=O)c4ccc(C#N)cc4)cn23)cn1 [Compound 47, methyl N-[5-[6-[(4-cyanobenzoyl)-methyl-amino]-8-methyl-imidazo[1,2-a]pyridin-3-yl]-2-pyridyl]carbamate]
≥ 80%: inhibition at 20 ppm (Pythium ultimum) | pest or weed control at 200 ppm (Plasmopara viticola) | pest or weed control at 200 ppm (Phytophthora infestans)

COC(=O)Nc1ccc(-c2cnc3c(C)cc(N(C)C(=O)c4ccc(F)cc4)cn23)cn1 [Compound 45, methyl N-[5-[6-[(4-fluorobenzoyl)-methyl-amino]-8-methyl-imidazo[1,2-a]pyridin-3-yl]-2-pyridyl]carbamate]
≥ 80%: inhibition at 20 ppm (Pythium ultimum) | pest or weed control at 200 ppm (Plasmopara viticola) | pest or weed control at 200 ppm (Phytophthora infestans)
